Key:
[1] = test system: TrkB cell surface retention; experiment: Cell surface retention of TrkB in cortical neurons; assay type: cell-based, rat
Experimental: The cell surface retention of TrkB was measured as previously described[11],[82]. […] For antagonist experiments, cultures were pretreated with M100907 (100 nM) for 10 min and remained present for the rest of the experiment. After washing with PBS and incubating for 1 h with blocking buffer (5% nonfat dry milk and 5% BSA) at room temperature, plates were incubated with goat anti-TrkB antibody (R&D Systems, AF1494; 1:1,000, overnight, 4 °C). After further PBS washes, plates were incubated with HRP-conjugated […] antibody (Bio-Rad, 170–5046; 1:5,000, 1 h, room temperature). Finally, wells were washed with PBS and the chemiluminescent signal was read after brief incubation with Pierce ECL substrate (Thermo Fisher Scientific, 32106).

TrkB pY816 = experiment: pY816 in PFC and hippocampus after single LSD injection (ELISA, immunoblot); assay type: in vivo; conditions: mouse brain samples, single administration
Experimental: The phosphorylation of TrkB (pY816) and interaction with PLCγ1 were assessed by enzyme-linked immunosorbent assay (ELISA) as previously described[11],[80],[81] with minor modifications. Briefly, white 96-well plates (PerkinElmer, OptiPlate 96F-HB) were precoated with goat anti-TrkB (R&D systems, AF1494; 1:500, overnight, 4 °C) antibody in carbonate buffer (pH 9.8) and blocked with 3% BSA in PBS with 0.1% Tween-20 (PBS-T) for 2 h at room temperature. […] Samples were incubated overnight at 4 °C, and 24 h later plates were washed with PBS-T and incubated with either rabbit anti-phospho-TrkB(Tyr816) (Cell Signaling Technology, 4168S; 1:2,000), rabbit anti-PLCγ1 (Cell Signaling Technologies, 5690S; 1:2,000) or rabbit anti-Trk (Cell Signaling Technologies, 92991; 1:2,000) antibodies overnight at 4 °C. After washing with PBS-T, plates were incubated with HRP-conjugated goat anti-rabbit (Bio-Rad, 170–5046; 1:5,000, 1 h, room temperature) antibody, followed by more washing with PBS-T. Finally, the chemiluminescent signal was read after brief incubation with Pierce ECL substrate (Thermo Fisher Scientific, 32106). Luminescence from blank wells that contained all reagents but the sample lysates was used to determine background signal. […]

TrkB V437A = molecular target: T1, TrkB V437A (Rattus norvegicus, UniProt Q63604, V437A); experiment: ^3H-LSD saturation binding, TrkB mutant
T1 construct: expressed in transfected cells; host or cells: HEK293T
Experimental: (§1) Binding assays were performed as previously described with minor modifications. […] Samples from mouse embryo (E18) brains were also lysed, vortexed, sonicated and centrifuged for binding assays. Plates were then washed with PBS. […] For the competition binding assays with biotinylated R,R-HNK, the amino-biotinylation of R,R-HNK was performed using a commercial kit (Thermo Scientific, EZ-Link NHS-PEG4 Biotinylation Kit, 21455) and the reaction monitored by MS. A mixture of biotinylated R,R-HNK (10 µM) and unlabeled compounds (1 pM to 10 µM) in PBS was added to the 96-well plates containing the immunoprecipitated TrkB and incubated for 1 h at room temperature. […] Luminescence was determined via streptavidin conjugated with horseradish peroxidase (HRP; Thermo Fisher Scientific, 21126; 1:5,000, 1 h at room temperature) in reaction with the Pierce ECL substrate (Thermo Fisher Scientific, 32106). Luminescence from blank wells that contained all reagents but the sample lysates was used to determine nonspecific binding. To obtain the binding curves, results from binding assays were fitted to the equation of specific binding with Hill slope from GraphPad Prism 9.2. To calculate koff values, results were fitted to the equation of dissociation of one phase exponential decay from GraphPad Prism 9.2.

TrkB Y433F [2] = molecular target: T2, TrkB Y433F (Rattus norvegicus, UniProt Q63604, Y433F); experiment: ^3H-LSD saturation binding, TrkB mutant
T2 construct: expressed in transfected cells; host or cells: HEK293T
Experimental: as §1

TrkB = experiment: Total TrkB expression in PFC and hippocampus after single LSD injection; assay type: in vivo, mouse; conditions: PFC or hippocampus, WT or Y433F^+/− mice
Experimental: The phosphorylation of TrkB (pY816) and interaction with PLCγ1 were assessed by enzyme-linked immunosorbent assay (ELISA) as previously described[11],[80],[81] with minor modifications. Briefly, white 96-well plates (PerkinElmer, OptiPlate 96F-HB) were precoated with goat anti-TrkB (R&D systems, AF1494; 1:500, overnight, 4 °C) antibody in carbonate buffer (pH 9.8) and blocked with 3% BSA in PBS with 0.1% Tween-20 (PBS-T) for 2 h at room temperature. […] Samples were incubated overnight at 4 °C, and 24 h later plates were washed with PBS-T and incubated with either rabbit anti-phospho-TrkB(Tyr816) (Cell Signaling Technology, 4168S; 1:2,000), rabbit anti-PLCγ1 (Cell Signaling Technologies, 5690S; 1:2,000) or rabbit anti-Trk (Cell Signaling Technologies, 92991; 1:2,000) antibodies overnight at 4 °C. After washing with PBS-T, plates were incubated with HRP-conjugated goat anti-rabbit (Bio-Rad, 170–5046; 1:5,000, 1 h, room temperature) antibody, followed by more washing with PBS-T. Finally, the chemiluminescent signal was read after brief incubation with Pierce ECL substrate (Thermo Fisher Scientific, 32106). Luminescence from blank wells that contained all reagents but the sample lysates was used to determine background signal.

TrkA.TM chimera = experiment: ^3H-LSD saturation binding, TrkB with TMD of TrkA; conditions: TMD of TrkB replaced by that of TrkA
Experimental: as §1

pmTOR = experiment: Western blot of mTOR phosphorylation in cortical neurons; assay type: cell-based, rat; conditions: LSD 100 nM
Experimental: In a separate set of experiments to examine the effect of 5-HT2A activation, M100907 (100 nM) was administered as a 10 min pretreatment and remained in the medium for the rest of the experiment. Next, cells were lysed and centrifuged. […] The co-immunoprecipitation was carried out as previously described[11],[23],[24] with minor modifications. Briefly, Magnetic Dynabeads Protein G (Invitrogen, 10004D) were coated with anti-TrkB antibody (R&D Systems, AF1494) at 200 ng of antibody per 1 µl of beads in rotation (2 h, 4 °C). Finally, lysates were mixed with the coated beads (100 µg of total protein per 15 µl of beads) and incubated in rotation (overnight, 4 °C).
Proteins were separated according to their molecular weight by SDS–PAGE and transferred to a polyvinylidene fluoride membrane. Membranes were incubated with the following primary antibodies (all 1:1,000 in 3% BSA in TBS-T, overnight, 4 °C): anti-TrkB (R&D Systems, AF1494), anti-β-actin (Sigma-Aldrich, A1978), anti-phospho-mTOR (Cell Signaling Technology, 5536S), anti-phospho-p44/42 MAPK (Erk1/2) (Cell Signaling Technology, 9106S), anti-mTOR (Cell Signaling Technology, 2972S) and anti-p44/42 MAPK (Erk1/2) (Cell Signaling Technology, 9102S). […] Protein bands were visualized using enhanced chemiluminescent substrate (Thermo Scientific, 32132, ECL Plus) and imaged with a charge-coupled device camera (G:BOX, Syngene).

Ntrk2 mRNA = experiment: RT–qPCR of Ntrk2 mRNA in cortical neurons; conditions: after LSD treatment
Bdnf mRNA = experiment: RT–qPCR of Bdnf mRNA in cortical neurons; conditions: for Bdnf mRNA, group mean (5f): LSD 100 nM
TrkB Y433F [3] = molecular target: T2, TrkB Y433F; experiment: Radioligand dissociation binding of ^3H-LSD; conditions: ext fig 1c, n=3
Experimental: as §1

TrkB WT = molecular target: T3, TrkB WT (Rattus norvegicus, UniProt Q63604); experiment: Radioligand dissociation binding of ^3H-LSD; conditions: ext fig 1c, n=3
T3 construct: expressed in transfected cells; host or cells: HEK293T
Experimental: as §1

T2 sequence (Q63604 32-821 Y433F): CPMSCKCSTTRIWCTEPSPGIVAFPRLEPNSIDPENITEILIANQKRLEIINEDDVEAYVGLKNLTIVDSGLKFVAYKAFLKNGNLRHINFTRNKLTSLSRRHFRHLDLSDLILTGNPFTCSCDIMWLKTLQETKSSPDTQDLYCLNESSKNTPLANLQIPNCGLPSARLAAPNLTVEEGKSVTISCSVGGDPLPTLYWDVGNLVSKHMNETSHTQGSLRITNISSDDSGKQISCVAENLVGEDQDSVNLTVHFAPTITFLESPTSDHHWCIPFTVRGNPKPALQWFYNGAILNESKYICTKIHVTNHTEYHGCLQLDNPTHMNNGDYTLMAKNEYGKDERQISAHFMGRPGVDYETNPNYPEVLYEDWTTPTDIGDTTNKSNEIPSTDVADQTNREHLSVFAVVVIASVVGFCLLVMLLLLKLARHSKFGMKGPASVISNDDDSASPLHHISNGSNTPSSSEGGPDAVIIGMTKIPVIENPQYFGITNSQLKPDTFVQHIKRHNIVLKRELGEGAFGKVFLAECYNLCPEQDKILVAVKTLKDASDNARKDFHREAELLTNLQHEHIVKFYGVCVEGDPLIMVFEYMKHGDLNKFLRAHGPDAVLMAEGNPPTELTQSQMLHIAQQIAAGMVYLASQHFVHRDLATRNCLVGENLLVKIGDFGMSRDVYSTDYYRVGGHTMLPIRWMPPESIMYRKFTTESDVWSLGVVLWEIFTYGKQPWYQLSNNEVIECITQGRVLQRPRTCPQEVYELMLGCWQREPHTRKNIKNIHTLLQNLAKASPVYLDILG
T1 sequence (Q63604 32-821 V437A): as the sequence (Q63604 32-821 Y433F) above, with F402Y, V406A counted along it
T3 sequence (Q63604 32-821): as the sequence (Q63604 32-821 Y433F) above, with F402Y counted along it

For `CCN(CC)C(=O)C1C=C2c3cccc4[nH]cc(c34)CC2N(C)C1` (centres unmarked) [LSD, lysergic acid diethylamide], the “TrkB cell surface retention” value [1] was “increases TrkB cell surface retention independently of 5-HT2A activation”, the “TrkB phosphorylation (pY816)” value (TrkB pY816) was “increases phosphorylation of TrkB tyrosine 816 (pY816)” and the “Bmax (best-fit, 1a)” value (TrkB V437A) was 88.07. The “h (best-fit, 1a)” value (TrkB V437A) was 1.581, the Kd (TrkB V437A; Kd (best-fit, 1a), unit inferred) was 25.9 nM and the Kd (TrkB V437A; Kd, ^3H-LSD saturation) was 25.9 ± 10.6 nM. The Kd (TrkB Y433F [2]; Kd (best-fit, 1a), Y433F, unit inferred) was 24.6 nM, the Kd (TrkB Y433F [2]; Kd, ^3H-LSD saturation, Y433F) was 24.6 ± 4.68 nM and the “Bmax (best-fit, 1a)” value (TrkB Y433F [2]; Y433F) was 91.95. For the same compound, the “h (best-fit, 1a)” value (TrkB Y433F [2]; Y433F) was 1.98, the LSD binding (TrkB Y433F [2]; Y433F point mutation) was “impairs LSD binding” and the “total TrkB expression” value (TrkB) was “remain unaffected”. For the same compound, the LSD binding (TrkA.TM chimera) was “completely abolishes LSD binding”, the “phosphorylation of mTOR” value (pmTOR) was “promotes phosphorylation of mTOR for at least 1 h” and the “Ntrk2 mRNA levels” value (Ntrk2 mRNA) was “without any changes in Ntrk2 mRNA levels”. For the same compound, the “Bdnf mRNA, group mean (5f)” value (Bdnf mRNA; 1 h, fold change, 1 h vehicle 1) was 2.028, the “Bdnf mRNA, group mean (5f)” value (Bdnf mRNA; 24 h) was 0.7739 and the “Bdnf mRNA, group mean (5f)” value (Bdnf mRNA; 72 h) was 0.7626. For the same compound, the “Bdnf mRNA” value (Bdnf mRNA; after LSD treatment) was “upregulated at 1 h”, the “Bdnf mRNA, predicted (LS) mean over timepoints (5f)” value (Bdnf mRNA; vehicle 1.015) was 1.188 and the “K (dissociation, one phase exponential decay)” value (TrkB Y433F [3]) was 0.02402. For the same compound, the “NS (dissociation, one phase exponential decay)” value (TrkB Y433F [3]) was 6.951, the “Y0 (dissociation, one phase exponential decay)” value (TrkB Y433F [3]) was 108.1 and the “K (dissociation, one phase exponential decay)” value (TrkB WT) was 0.008532. For the same compound, the “NS (dissociation, one phase exponential decay)” value (TrkB WT) was 2.667 and the “Y0 (dissociation, one phase exponential decay)” value (TrkB WT) was 110.7.

Source: PMC10244169, “Psychedelics promote plasticity by directly binding to BDNF receptor TrkB” (Nature Neuroscience, 2023)
